How the values were obtained:
[1] = system: caspase-3/7 activity in 'Sensitive' neuroblastoma and 'Not Sensitive' (RPE1, BT-12, BT-16) cell lines; test: Caspase activation assay; type: cell-based; details: 500 nM centrinone B, four cell cycle durations, compared with centrinone
PLK4 = target: T1, PLK4 (Homo sapiens, UniProt O00444); test: Activity (IC50) of the Table 1 compounds as PLK4 inhibitors; type: biochemical; details: Table 1, IC50 class
T1 sequence (O00444 1-970): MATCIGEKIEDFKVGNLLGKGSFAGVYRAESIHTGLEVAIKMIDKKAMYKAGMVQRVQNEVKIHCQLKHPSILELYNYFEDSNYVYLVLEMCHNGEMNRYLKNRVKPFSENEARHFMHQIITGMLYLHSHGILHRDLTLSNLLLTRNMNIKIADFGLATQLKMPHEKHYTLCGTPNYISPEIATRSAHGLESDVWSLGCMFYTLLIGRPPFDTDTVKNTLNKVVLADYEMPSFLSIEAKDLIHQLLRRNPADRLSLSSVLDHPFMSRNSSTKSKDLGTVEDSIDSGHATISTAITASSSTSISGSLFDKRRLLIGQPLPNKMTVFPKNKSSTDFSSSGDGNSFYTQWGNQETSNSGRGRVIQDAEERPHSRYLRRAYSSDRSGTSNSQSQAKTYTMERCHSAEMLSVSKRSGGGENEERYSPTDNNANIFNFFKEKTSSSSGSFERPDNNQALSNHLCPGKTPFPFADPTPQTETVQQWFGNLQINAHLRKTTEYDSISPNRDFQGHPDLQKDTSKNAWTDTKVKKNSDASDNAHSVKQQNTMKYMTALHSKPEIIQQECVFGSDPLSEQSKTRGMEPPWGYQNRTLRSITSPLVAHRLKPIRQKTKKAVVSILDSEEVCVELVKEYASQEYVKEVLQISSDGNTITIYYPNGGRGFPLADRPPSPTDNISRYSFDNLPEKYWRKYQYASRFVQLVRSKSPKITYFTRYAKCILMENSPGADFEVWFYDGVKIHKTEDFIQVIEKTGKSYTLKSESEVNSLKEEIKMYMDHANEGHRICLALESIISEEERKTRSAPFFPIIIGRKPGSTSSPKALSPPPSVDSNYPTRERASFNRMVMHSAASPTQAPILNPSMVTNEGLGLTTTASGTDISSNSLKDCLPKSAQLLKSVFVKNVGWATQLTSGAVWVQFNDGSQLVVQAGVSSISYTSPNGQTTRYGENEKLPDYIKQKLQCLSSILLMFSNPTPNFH

COc1c(Nc2cc(C)[nH]n2)nc(Sc2ccc(S(=O)(=O)Cc3cccc([N+](=O)[O-])c3F)cc2F)nc1N1CCCCC1 [centrinone B]
caspase activity [1]: Comparable levels of caspase activity

COc1c(Nc2cc(C)[nH]n2)nc(Sc2ccc(S(=O)(=O)C3(c4cccc([N+](=O)[O-])c4F)CC3)cc2F)nc1N1CCOCC1
IC50 (PLK4): < 100 nM

COc1ccc(CN(C)CCC2CCN(c3nc(Sc4ccc(S(=O)(=O)C(C)(C)c5cc(Cl)cc([N+](=O)[O-])c5F)cc4F)nc(Nc4cc(C)[nH]n4)c3OC)CC2)cc1
IC50 (PLK4): < 100 nM

COCC(=O)N1CCN(c2nc(Sc3ccc(N)cc3)nc(Nc3cc(C)[nH]n3)c2C)CC1
IC50 (PLK4): < 100 nM

COc1c(Nc2cc(C)[nH]n2)nc(Sc2ccc(S(=O)(=O)c3cccc([N+](=O)[O-])c3F)cc2F)nc1N1CCOCC1
IC50 (PLK4): < 100 nM

COc1c(Nc2cc(C)[nH]n2)nc(Sc2ccc(S(=O)(=O)Cc3cccc([N+](=O)[O-])c3F)cc2F)nc1N1CCCCC1 [drawing 376]
IC50 (PLK4): < 100 nM

COCC(=O)N1CCN(c2nc(Sc3ccccc3)nc(Nc3cc(C)[nH]n3)c2C)CC1
IC50 (PLK4): < 100 nM

COc1c(Nc2cc(C)[nH]n2)nc(Sc2ccc(NC(=O)C(F)(F)F)cc2)nc1N1CCN(CCN(C)C)CC1
IC50 (PLK4): < 100 nM

COc1c(Nc2cc(C)[nH]n2)nc(Sc2ccc(NC(C)=O)cc2)nc1N1C2CCC1CC(O)C2 (centres unmarked)
IC50 (PLK4): < 100 nM

CNCC(=O)C1CCN(c2nc(Sc3ccc(NC(C)=O)cc3)nc(Nc3cc(C)[nH]n3)c2OC)CC1
IC50 (PLK4): < 100 nM

CCOc1c(Nc2cc(C)[nH]n2)nc(Sc2ccc(NC(C)=O)cc2)nc1N1CCC(O)CC1
IC50 (PLK4): < 100 nM

COc1c(Nc2cc(C)[nH]n2)nc(Sc2ccc(S(=O)(=O)C(C)(C)c3cc(F)cc([N+](=O)[O-])c3F)cc2F)nc1N1CCC(CCN(C)C)CC1
IC50 (PLK4): < 100 nM

COc1c(Nc2cc(C)[nH]n2)nc(Sc2ccc(NC(C)=O)cc2)nc1N(C)C(C)C
IC50 (PLK4): < 100 nM

COc1c(Nc2cc(C)[nH]n2)nc(Sc2ccc(S(=O)(=O)Cc3c(F)c(F)cc(Cl)c3F)cc2F)nc1N1CCN(CCN(C)C)CC1
IC50 (PLK4): < 100 nM

COc1c(Nc2cc(C)[nH]n2)nc(Sc2ccc(S(=O)(=O)Cc3cccc([N+](=O)[O-])c3F)cc2)nc1N1CCCCC1
IC50 (PLK4): < 100 nM

Cc1cc(Nc2nc(Sc3ccc(NC(=O)C4CC4)cc3)nc(N3CCN(C(C)C)CC3)c2C)n[nH]1
IC50 (PLK4): < 100 nM

CC(=O)Nc1ccc(Sc2nc(Nc3cc(C)[nH]n3)c(C)c(N3CCCCCC3)n2)cc1
IC50 (PLK4): < 100 nM

CNC(=O)c1ccc(Sc2nc(Nc3cc(C)[nH]n3)c(OC)c(N3CCN(CCN(C)C)CC3)n2)cc1
IC50 (PLK4): < 100 nM

CNC(=O)Nc1ccc(Sc2nc(Nc3cc(C)[nH]n3)c(C)c(N3CCC(O)CC3)n2)cc1
IC50 (PLK4): < 100 nM

CNc1nc(Sc2ccc(NC(=O)C3CC3)cc2)nc(Nc2cc(C)[nH]n2)c1OC
IC50 (PLK4): < 100 nM

COc1c(Nc2cc(C)[nH]n2)nc(Sc2ccc(C(=O)N(C)C)cc2)nc1N1CCN(CCN(C)C)CC1
IC50 (PLK4): < 100 nM

CNC(=O)Nc1ccc(Sc2nc(Nc3cc(C)[nH]n3)c(C)c(N3CCN(C(=O)COC)CC3)n2)cc1
IC50 (PLK4): < 100 nM

COc1c(Nc2cc(C)[nH]n2)nc(Sc2ccc(CC(=O)C3CC3)cc2)nc1N1CCC(O)CC1
IC50 (PLK4): < 100 nM

CCS(=O)(=O)c1ccc(Sc2nc(Nc3cc(C)[nH]n3)c(OC)c(N3CCC(CCN4C5CCCC4CCC5)CC3)n2)cc1
IC50 (PLK4): < 100 nM

COc1c(Nc2cc(C)[nH]n2)nc(Sc2ccc(S(=O)(=O)Cc3cccc(N(C)C)c3)cc2)nc1N1CCN(CCN(C)C)CC1
IC50 (PLK4): < 100 nM

COc1c(Nc2cc(C)[nH]n2)nc(Sc2ccc(S(=O)(=O)Cc3ccccc3)cc2)nc1N1CCN(CCN(C)C)CC1
IC50 (PLK4): < 100 nM

CCc1cc(Nc2nc(SC)nc(N3CCN(CCN(C)C)CC3)c2OC)n[nH]1
IC50 (PLK4): < 100 nM

COc1c(Nc2cc(C)[nH]n2)nc(Sc2ccc(S(=O)(=O)C(C)(C)c3cccc([N+](=O)[O-])c3F)cc2F)nc1N1CCC(CC(N)=O)CC1
IC50 (PLK4): < 100 nM

COc1c(Cc2cc(C)[nH]n2)nc(Sc2ccc(S(=O)(=O)Cc3cccc([N+](=O)[O-])c3)cc2F)nc1N1CCOC[C@H]1C
IC50 (PLK4): < 100 nM

COc1c(Nc2cc(C)[nH]n2)nc(Sc2ccc(S(=O)(=O)Cc3c(F)c(F)c(F)c(F)c3F)cc2F)nc1N1CCOCC1
IC50 (PLK4): < 100 nM

CCNc1nc(Sc2ccc(NC(=O)C3CC3)cc2)nc(Nc2cc(C)[nH]n2)c1OC
IC50 (PLK4): < 100 nM

Cc1cc(Nc2nc(Sc3ccc(NC(=O)C4CC4)cc3)nc(N(C)CCN(C)C)c2C)n[nH]1
IC50 (PLK4): < 100 nM

CCOc1c(Nc2cc(C)[nH]n2)nc(Sc2ccc(S(=O)(=O)CC)cc2)nc1N1CCNCC1
IC50 (PLK4): < 100 nM

COC(=O)c1cccc(CS(=O)(=O)c2ccc(Sc3nc(Nc4cc(C)[nH]n4)c(OC)c(N4CCOCC4)n3)c(F)c2)c1F
IC50 (PLK4): < 100 nM

COc1c(Nc2cc(C)[nH]n2)nc(Sc2ccc(S(=O)(=O)Cc3cccc(F)c3F)cc2F)nc1N1CCCCC1
IC50 (PLK4): < 100 nM

CCNc1nc(Sc2ccc(NC(=O)C3CC3)cc2)nc(Nc2cc(C)[nH]n2)c1C
IC50 (PLK4): < 100 nM

COc1c(Nc2cc(C)[nH]n2)nc(Sc2ccc(S(=O)(=O)Cc3cccc(C#N)c3F)cc2F)nc1N1CCOCC1
IC50 (PLK4): < 100 nM

COC(=O)c1ccccc1CS(=O)(=O)c1ccc(Sc2nc(Nc3cc(C)[nH]n3)c(OC)c(N3CCN(CCN(C)C)CC3)n2)cc1
IC50 (PLK4): < 100 nM

COc1c(Nc2cc(C)[nH]n2)nc(Sc2ccc(NC(C)=O)cc2)nc1N1CCN(C2CCN(C)CC2)CC1
IC50 (PLK4): < 100 nM

COc1c(Nc2cc(C)[nH]n2)nc(Sc2ccc(NC(C)=O)cc2)nc1N1CCN(CCN2C3CCCC2CC3)CC1
IC50 (PLK4): < 100 nM

COc1c(Nc2cc(C)[nH]n2)nc(Sc2ccc(S(=O)(=O)C3(c4cccc([N+](=O)[O-])c4F)CC3)cc2F)nc1N1CCC(CN)CC1
IC50 (PLK4): < 100 nM

CC(=O)Nc1ccc(Sc2nc(Nc3cc(C)[nH]n3)c(C)c(N3CCN(C(=O)CCN(C)C)CC3)n2)cc1
IC50 (PLK4): < 100 nM

COc1c(Nc2cc(C)[nH]n2)nc(Sc2ccc(S(=O)(=O)Cc3ccccc3)cc2)nc1C1CCN(CCN(C)C)CC1
IC50 (PLK4): < 100 nM

COC(=O)CC1CCN(c2nc(Sc3ccc(S(=O)(=O)C(C)(C)c4cccc([N+](=O)[O-])c4F)cc3F)nc(Nc3cc(C)[nH]n3)c2OC)CC1
IC50 (PLK4): < 100 nM

COc1c(Nc2cc(C)[nH]n2)nc(Sc2ccc(S(=O)(=O)Cc3ccccc3)cc2)nc1N1CC2CCC(C1)O2
IC50 (PLK4): < 100 nM

CNC(=O)Nc1ccc(Sc2nc(Nc3cc(C)[nH]n3)c(C)c(N(C)C(C)C)n2)cc1
IC50 (PLK4): < 100 nM

COc1c(Nc2cc(C)[nH]n2)nc(Sc2ccc(S(=O)(=O)C(C)(C)c3cccc([N+](=O)[O-])c3F)cc2F)nc1N1CCC(CCN(C)C)CC1
IC50 (PLK4): < 100 nM

COc1c(Nc2cc(C)[nH]n2)nc(Sc2ccc(NC(N)=O)cc2)nc1N1CCN(CCN(C)C)CC1
IC50 (PLK4): < 100 nM

Cc1cc(Nc2nc(Sc3ccc(NC(=O)C4CC4)cc3)nc(N3CCC(O)CC3)c2C)n[nH]1
IC50 (PLK4): < 100 nM

Cc1cc(Nc2nc(Sc3ccc(NC(=O)C4CC4)cc3)nc(Cl)c2C)n[nH]1
IC50 (PLK4): < 100 nM

— US11612604B2, “Methods of treating cancer with PLK4 inhibitors” (LUDWIG INSTITUTE FOR CANCER RESEARCH LTD, priority 2017, dated 2023)
